{"source": "paper PMC6128740", "about": "(European journal of drug metabolism and pharmacokinetics, 2018)", "key": {"[1]": {"conditions": "mouse, in vivo"}, "[2]": {"conditions": "mouse, in vivo; for V (volume of distribution): 1.1 mg/kg"}, "[3]": {"assay": "Stability of C3 in solutions at pH 1 or pH 10", "format": "physicochemical", "conditions": "pH 1 or pH 10 for >24 h at 37°C"}, "[4]": {"tested_on": "pregnant mouse dams", "conditions": "in vivo; cited from earlier work"}, "[5]": {"assay": "Tissue distribution of 14C-C3 in mice", "set-up": "species or system C57BL/6J mice", "conditions": "mouse, in vivo"}, "[6]": {"assay": "C3 partitioning and plasma protein binding in mouse blood and plasma", "format": "in vitro ADME"}, "[7]": {"conditions": "10 or 100 μg/ml, 3000 mwco centricon filter"}}, "note": "Like-named read-outs stand apart in the source and are kept apart here."}
{"substance": "e,e,e, tris malonic acid C60 [C3]", "values": [{"measurement": "brain uptake", "setting": "[1]", "value": "10 % of the administered dose"}, {"measurement": "V (volume of distribution)", "setting": "[2]; ip", "value": "0.91 ± 0.12", "unit": "L/kg"}, {"measurement": "V (volume of distribution)", "setting": "[2]; iv", "value": "0.85 ± 0.08", "unit": "L/kg"}, {"measurement": "Oral bioavailability", "setting": "[2]; po", "value": "~ 10 % of the i.v. administration"}, {"measurement": "stability in solution", "setting": "[3]", "value": "a small fraction of carboxylic acid head-groups were removed, but the cyclopropane carbons were intact"}, {"measurement": "effects on fertility, pregnancy, viability or anatomy of the offspring", "setting": "[4]", "value": "failed to find any effects"}, {"measurement": "tissue radioactivity, 7-day pump vs single bolus dose, adjusted for dose", "setting": "[5]", "value": 5, "unit": "times"}, {"measurement": "14C-C3 in the filtrate of the saline control", "setting": "[6]; [7]", "value": 73, "unit": "%"}, {"measurement": "14C-C3 in the plasma filtrate (free)", "setting": "[6]; [7]", "value": 13, "unit": "%"}, {"measurement": "fraction of blood C3 in the plasma fraction", "setting": "[6]; blood from treated animals and naïve blood spiked with 14C-C3, centrifugation", "value": "> 99", "unit": "%"}, {"measurement": "protein bound", "setting": "[6]; mouse plasma, 10 or 100 μg/ml, mean ± SEM", "value": "87 ± 0.1", "unit": "%"}]}
